pIC50: −log10 of the molar value.
Target: Pyruvate Dehydrogenase Kinase 3 (PDK3) (Homo sapiens, UniProt Q15120)
Assay: BIOMOL Green ATPase assay with purified PDK3
Type: biochemical

Chain of Pyruvate Dehydrogenase Kinase 3 (PDK3) (Q15120 whole entry): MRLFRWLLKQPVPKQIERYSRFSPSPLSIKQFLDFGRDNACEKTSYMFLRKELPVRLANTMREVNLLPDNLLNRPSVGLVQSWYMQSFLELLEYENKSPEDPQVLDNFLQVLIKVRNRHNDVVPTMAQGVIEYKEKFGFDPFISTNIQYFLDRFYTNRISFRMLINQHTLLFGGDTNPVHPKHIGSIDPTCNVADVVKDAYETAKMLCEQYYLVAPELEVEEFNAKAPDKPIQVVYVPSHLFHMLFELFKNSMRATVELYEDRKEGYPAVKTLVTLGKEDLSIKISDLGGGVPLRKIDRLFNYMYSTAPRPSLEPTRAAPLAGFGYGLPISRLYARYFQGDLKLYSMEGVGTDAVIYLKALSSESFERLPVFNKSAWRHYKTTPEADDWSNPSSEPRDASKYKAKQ

pIC50: 5.45
SMILES: Cc1ccc(O)cc1 [p-C, 4-methylphenol]
